Test results published in patent publication US5486516A, “Furopyrimidine derivatives” (DowElanco, priority 1993, dated 1996).

What was measured:
[1] = test system: Pyricularia oryzae (rice blast); assay: whole plant or invertebrate; assay type: in vivo; conditions: foliar, read-out: RICE BLAST control rating
[2] = test system: Southern corn rootworm (Diabrotica undecimpuctata howardi Barber); assay: Mite/insect screen, corn rootworm; assay type: in vivo; conditions: Diabrotica, soil, read-out: CRW results (percent mortality); for mortality at 24 ppm: CRW rate 24.00 ppm; for mortality at 12 ppm: CRW rate 12.00 ppm
Outline: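 Compound in acetone/alcohol with emulsifiers, diluted with water; 1 mL applied to 15 g dry sandy soil holding a presoaked corn seed. After 6–12 h drying, five 2-3 instar larvae added, held at 23° C; percent mortality and phytotoxicity scored after standard exposure periods.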

[3] = test system: southern armyworm (Spodopetra eridania Cramer); assay: Mite/insect screen, Southern armyworm; assay type: in vivo; conditions: Spodoptera eridania, sprayed leaves, read-out: SAW results (percent mortality); for mortality at 400 ppm: rate 400 ppm; for mortality at 200 ppm: rate 200 ppm
Outline: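 Compounds in acetone/alcohol with Toximul emulsifiers, diluted in water, sprayed to runoff on squash leaves at 10 psi and dried 1 h. Excised treated leaves fed to southern armyworm larvae in Petri dishes; percent mortality scored after standard exposure.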

[4] = test system: Twospotted spider mites (Tetranychus urticae Koch); assay: Mite/insect screen, twospotted spider mites; assay type: in vivo; conditions: Tetranychus urticae, sprayed leaves, read-out: SM results (percent mortality); for mortality at 400 ppm: rate 400 ppm; for mortality at 200 ppm: rate 200 ppm
Outline: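 Squash cotyledons infested with mites were sprayed to runoff at 10 psi with compound in acetone/alcohol plus emulsifiers, diluted in water to the stated concentrations. Percent mortality and phytotoxicity were scored after standard exposure periods.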

[5] = test system: melon aphids (Aphis gossvpii Glover); assay: Mite/insect screen, melon aphids; assay type: in vivo; conditions: Aphis, sprayed leaves, read-out: MA results (percent mortality); for mortality at 400 ppm: rate 400 ppm; for mortality at 200 ppm: rate 200 ppm
Outline: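 Aphids established on squash cotyledons were sprayed to runoff with compound in acetone/alcohol with sulfonate/nonionic emulsifiers, diluted in water to test concentrations. Leaves dried 1 h. Percent mortality scored after standard exposure periods.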

[6] = test system: Puccinia recondita tritici (leaf rust); assay: Plant pathology screen (Test 1), leaf rust on wheat; conditions: in Triticum aestivum, foliar, read-out: LEAF RUST control rating
[7] = test system: Pseudoperonospora cubensis (downy mildew); assay: Plant pathology screen (Test 1), downy mildew on squash; conditions: foliar, read-out: DOWN MDEW control rating
[8] = test system: Erysiphe graminis tritici (powdery mildew); assay: Plant pathology screen (Test 1), powdery mildew on wheat; conditions: Blumeria graminis, in Triticum aestivum, foliar, read-out: POWD MDEW control rating
[9] = test system: Botrytis cinerea (gray mold); assay: Plant pathology screen (Test 1), gray mold on grape berries; conditions: read-out: GRAY MOLD control rating

Row | Structure (SMILES) | pest or weed control at 400 µg/mL [1] [%] | mortality at 24 ppm [2] [%] | mortality at 400 ppm [3] [%] | mortality at 400 ppm [4] [%] | mortality at 400 ppm [5] [%] | pest or weed control at 400 µg/mL [6] [%] | pest or weed control at 400 µg/mL [7] [%] | pest or weed control at 400 µg/mL [8] [%] | pest or weed control at 400 µg/mL [9] [%] | mortality at 12 ppm [2] [%] | mortality at 200 ppm [3] [%] | mortality at 200 ppm [4] [%] | mortality at 200 ppm [5] [%]
1 | Cc1oc2ncnc(OCCc3ccc(OC(F)(F)F)cc3)c2c1C [Example 69, 5,6-dimethyl-4-[2-[4-(trifluoromethoxy)phenyl]ethoxy]furo[2,3-d]pyrimidine] | 20 to 89 | 0 | 0 | 90 | 90 | 20 to 89 | 0 to 19 | 90 to 100 | 0 to 19 |  |  |  | 
2 | Cc1cc2c(OCCc3ccc(OC(C)(C)C)cc3)ncnc2o1 [Example 43, 6-methyl-4-[2-[4-(t-butoxy)phenyl]ethoxy]furo[2,3-d]pyrimidine] | 20 to 89 | 0 | 0 | 80 | 80 | 90 to 100 | 90 to 100 | 90 to 100 | 0 to 19 | 0 | 0 | 90 | 90
3 | Cc1oc2ncnc(NCCC3=CCCCC3)c2c1C [Example 72, 5,6-dimethyl-N-[2-(1-cyclohexenyl)ethyl]furo[2,3-d]pyrimidin-4-amine] | 0 to 19 | 0 | 60 | 0 | 100 | 90 to 100 | 90 to 100 | 20 to 89 | 0 to 19 |  |  |  | 
4 | Cc1coc2ncn(CCc3ccc4ccccc4c3)c(=N)c12 [Example 79, 5-methyl-3-[2-(2-naphthyl)ethyl]furo[2,3-d]pyrimidin-4(3H)-imine] | 20 to 89 | 0 | 0 | 0 | 0 | 20 to 89 | 90 to 100 | 0 to 19 | 0 to 19 |  |  |  | 
5 | Cc1coc2ncnc(NCCc3ccc(Cl)cc3)c12 [Example 11, 5-methyl-N-[2-(4-chlorophenyl)ethyl]furo[2,3-d]pyrimidin-4-amine] | 90 to 100 | 0 | 60 | 0 | 0 | 90 to 100 | 90 to 100 | 20 to 89 | 0 to 19 | 0 | 0 | 30 | 90
6 | CCOc1ccc(CCNc2ncnc3oc(C)c(C)c23)cc1 [Example 3, 5,6-dimethyl-N-[2-(4-ethoxyphenyl)ethyl]furo[2,3-d]pyrimidin-4-amine] | 20 to 89 | 0 | 0 | 0 | 0 | 20 to 89 | 20 to 89 | 0 to 19 | 0 to 19 | 0 | 30 | 0 | 0
7 | Cc1oc2ncnc(OCC(C)c3ccc(CC(C)C)cc3)c2c1C (stereo not shown) [Example 67, 4-[2-[4-(2,2-dimethylethyl)phenyl]-2-methylethoxy]5,6-dimethylfuro[2,3-d]pyrimidine] | 90 to 100 | 0 | 0 | 100 | 100 | 20 to 89 | 20 to 89 | 20 to 89 | 20 to 89 | 0 | 0 | 100 | 100
8 | Cc1oc2ncnc(Oc3ccccc3F)c2c1C [Example 66, 4-(2-fluorophenoxy)-5,6-dimethylfuro[2,3-d]pyrimidine] | 0 to 19 | 0 | 0 | 0 | 0 | 20 to 89 | 90 to 100 | 90 to 100 | 0 to 19 | 0 | 0 | 0 | 0
9 | Cc1coc2ncnc(NCCc3ccc4ccccc4c3)c12 [Example 21, 5-methyl-N-[2-(2-naphthyl)ethyl]furo[2,3-d]pyrimidin-4-amine] | 0 to 19 | 100 | 0 | 60 | 80 | 90 to 100 | 90 to 100 | 90 to 100 | 0 to 19 | 100 | 0 | 80 | 100
10 | Cc1oc2ncnc(OCCc3ccc4c(c3)OC(F)(F)O4)c2c1C [Example 70] | 0 to 19 | 0 | 0 | 0 | 0 | 0 to 19 | 0 to 19 | 0 to 19 | 0 to 19 |  |  |  | 
11 | Cc1coc2ncnc(NCCSCc3c(F)cccc3Cl)c12 [Example 16, 5-methyl-N-[2-[[ (2-chloro-6-fluorophenyl)methyl]thio]ethyl]furo[2,3-d]pyrimidin-4-amine] | 0 to 19 | 0 | 0 | 0 | 0 | 0 to 19 | 0 to 19 | 0 to 19 | 0 to 19 | 0 | 0 | 0 | 0
12 | COc1ccc(CCNc2ncnc3oc4c(c23)CCCC4)cc1 [Example 30, N-[2-(4-methoxyphenyl)ethyl]-5,6,7,8-tetrahydrobenzofuro[2,3-d]pyrimidin-4-amine] | 0 to 19 | 0 | 90 | 0 | 0 | 20 to 89 | 20 to 89 | 0 to 19 | 0 to 19 | 0 | 0 | 0 | 0
13 | Cc1cc2c(NCCc3cccc(C(F)(F)F)c3)ncnc2o1 [Example 8, 6-methyl-N-[2-[3-(trifluoromethyl)phenyl]ethyl]furo[2,3-d]pyrimidin-4-amine] | 20 to 89 | 0 | 0 | 0 | 0 | 90 to 100 | 90 to 100 | 20 to 89 | 0 to 19 | 0 | 0 | 0 | 0
14 | COc1ccc(CCNc2ncnc3occc23)cc1 [Example 15, N-[2-(4-methyloxyphenyl)ethyl]furo[2,3-d]pyrimidin-4-amine] | 20 to 89 | 0 | 0 | 0 | 0 | 90 to 100 | 90 to 100 | 20 to 89 | 0 to 19 | 0 | 0 | 0 | 0
15 | CCCCOc1ccc(CCOc2ncnc3oc(C)cc23)cc1 [Example 44, 4-[4-(4-butoxyphenyl)ethoxy]-6-methylfuro[2,3-d]pyrimidine] | 0 to 19 | 0 | 0 | 0 | 0 | 90 to 100 | 20 to 89 | 0 to 19 | 0 to 19 |  |  |  | 
